The results in this text go back to ChEMBL document CHEMBL1212722, “Designer enzymes for glycosphingolipid synthesis by directed evolution” (Nat Chem Biol, 2009).

Data set [1] has as its system Rhodococcus sp. Kind of data set: Activity of Rhodococcus sp. M777 Endoglycoceramidase 2 containing wild type sequence E351S.
The subject of data set [2] is Rhodococcus sp. Kind of data set: Ratio of Kcat to Km of Activity of Rhodococcus sp. M777 Endoglycoceramidase 2 containing wild type sequence E351S.
Substrate in data set [3]: CCCCCCCCCCCCCC[C@@H](O)[C@@H](O)[C@@H](N)CO
Kind of data set: Ratio of Kcat to Km of Activity of Rhodococcus sp. M777 Endoglycoceramidase 2 V101M K200R mutant.

Substrate in data set [4]: CCCCCCCCCCCCCC[C@@H](O)[C@@H](O)[C@@H](N)CO
As to the kind of experiment: Ratio of Kcat to Km of Activity of Rhodococcus sp. M777 Endoglycoceramidase 2 N148S mutant.

Substrate in data set [5]: CCCCCCCCCCCCCC[C@@H](O)[C@@H](O)[C@@H](N)CO
Kind of data set: Ratio of Kcat to Km of Activity of Rhodococcus sp. M777 Endoglycoceramidase 2 K129N mutant.

The term Km denotes the substrate concentration at which the rate is half of its maximum. For orientation: kcat means the number of substrate molecules converted per active site and unit of time at saturation. One may read the kcat/Km as the second-order rate constant that governs catalysis at low substrate concentration. Take `CCCCCCCCCCCCC/C=C/[C@@H](O)[C@@H](N)CO`: in the data set on Rhodococcus sp. [1], the Km was found to be 410 µM and the kcat was found to be 0.19 s⁻¹. Moreover, the kcat/Km with Rhodococcus sp. [2] amounted to 463 M⁻¹ s⁻¹. The corresponding values for `CC(=O)N[C@H]1[C@H](O[C@@H]2[C@H](O[C@]3(C(=O)O)C[C@H](O)[C@@H](NC(C)=O)[C@H]([C@@H](O)[C@@H](O)CO)O3)[C@@H](O)[C@H](O[C@H]3[C@H](O)[C@@H](O)[C@@H](F)O[C@@H]3CO)O[C@@H]2CO)O[C@H](CO)[C@H](O)[C@@H]1O[C@@H]1O[C@H](CO)[C@H](O)[C@H](O)[C@H]1O` are 770 µM, 0.21 s⁻¹ and 273 M⁻¹ s⁻¹.

B1: Endoglycoceramidase II (Rhodococcus sp), A0ACD6B832 V101M,K200R (protein)
chain: MRRTRLVSLIVTGSLVFGGGVAAAQSSLAASGSGSGSGTALTPSYLKDDDGRSLILRGFNTASSAKSAPDGMPQFTEADLAREYADMGTNFVRFLISWRSMEPAPGVYDQQYLDRVEDRVGWYAERGYKVMLDMHQDVYSGAITPEGNSGNGAGAIGNGAPAWATYMDGLPVEPQPRWELYYIQPGVMRAFDNFWNTTGRHPELVEHYAKAWRAVADRFADNDAVVAYDLMNEPFGGSLQGPAFEAGPLAAMYQRTTDAIRQVDQDTWVCVAPQAIGVNQGLPSGLTKIDDPRAGQQRIAYCPHLYPLPLDIGDGHEGLARTLTDVTIDAWRANTAHTARVLGDVPIILGEFGLDTTLPGARDYIERVYGTAREMGAGVSYWSSDPGPWGPYLPDGTQTLLVDTLNKPYPRAVAGTPTEWSSTSDRLQLTIEPDAAITAPTEIYLPEAGFPGDVHVEGADVVGWDRQSRLLTVRTPADSGNVTVTVTPAA
As for B1, the kcat/Km in data set [3] worked out at 3.1 M⁻¹ s⁻¹.

B2: Endoglycoceramidase II (Rhodococcus sp), A0ACD6B832 N148S (protein)
chain: MRRTRLVSLIVTGSLVFGGGVAAAQSSLAASGSGSGSGTALTPSYLKDDDGRSLILRGFNTASSAKSAPDGMPQFTEADLAREYADMGTNFVRFLISWRSVEPAPGVYDQQYLDRVEDRVGWYAERGYKVMLDMHQDVYSGAITPEGSSGNGAGAIGNGAPAWATYMDGLPVEPQPRWELYYIQPGVMRAFDNFWNTTGKHPELVEHYAKAWRAVADRFADNDAVVAYDLMNEPFGGSLQGPAFEAGPLAAMYQRTTDAIRQVDQDTWVCVAPQAIGVNQGLPSGLTKIDDPRAGQQRIAYCPHLYPLPLDIGDGHEGLARTLTDVTIDAWRANTAHTARVLGDVPIILGEFGLDTTLPGARDYIERVYGTAREMGAGVSYWSSDPGPWGPYLPDGTQTLLVDTLNKPYPRAVAGTPTEWSSTSDRLQLTIEPDAAITAPTEIYLPEAGFPGDVHVEGADVVGWDRQSRLLTVRTPADSGNVTVTVTPAA
For the molecule B2, the kcat/Km in data set [4] came out at 2.1 M⁻¹ s⁻¹.

B3: Endoglycoceramidase II (Rhodococcus sp), A0ACD6B832 K129N (protein)
chain: MRRTRLVSLIVTGSLVFGGGVAAAQSSLAASGSGSGSGTALTPSYLKDDDGRSLILRGFNTASSAKSAPDGMPQFTEADLAREYADMGTNFVRFLISWRSVEPAPGVYDQQYLDRVEDRVGWYAERGYNVMLDMHQDVYSGAITPEGNSGNGAGAIGNGAPAWATYMDGLPVEPQPRWELYYIQPGVMRAFDNFWNTTGKHPELVEHYAKAWRAVADRFADNDAVVAYDLMNEPFGGSLQGPAFEAGPLAAMYQRTTDAIRQVDQDTWVCVAPQAIGVNQGLPSGLTKIDDPRAGQQRIAYCPHLYPLPLDIGDGHEGLARTLTDVTIDAWRANTAHTARVLGDVPIILGEFGLDTTLPGARDYIERVYGTAREMGAGVSYWSSDPGPWGPYLPDGTQTLLVDTLNKPYPRAVAGTPTEWSSTSDRLQLTIEPDAAITAPTEIYLPEAGFPGDVHVEGADVVGWDRQSRLLTVRTPADSGNVTVTVTPAA
On to B3, for which the kcat/Km in data set [5] worked out at 3.1 M⁻¹ s⁻¹.
